Test results taken from patent US20040096423A1, “Use of a triple combination comprising a 5ht3 antagonist, a 5ht4agonist and a laxative for promoting intestinal lavage” (priority 2000, published 2004).

Legend:
5HT4 receptor = target: T1, 5HT4 receptor (Cavia porcellus, UniProt O70528); assay: Electrically stimulated guinea-pig ileum longitudinal muscle-myenteric plexus strips (titled in vitro binding affinity for the 5HT4 receptor); assay type: cell-based; conditions: submaximal electrical stimulation
T1 construct: The longitudinal muscle layer with myenteric plexus was removed; from tissue; host or cells: guinea-pig ileum longitudinal muscle with myenteric plexus
Source text: Dunkin-Hartley guinea-pigs of either sex (weighing between 600-900 g) were killed by decapitation. The ileum was removed and cleansed with warmed and oxygenated Krebs-Henseleit solution. Parts of the ileum (15 cm) were slipped over a glass pipette. The longitudinal muscle layer with myenteric plexus was removed by means of a cotton thread moistened with Krebs solution. Strips with a length of 8 cm were folded and these strips (4 cm) were mounted between two platinum electrodes (8 cm length, 0.5 cm apart). […] The preparations were excited with single rectangular stimuli [1 ms; 0.1 Hz; submaximal response (current leading to 80% of maximal response), from a programmable stimulator (Janssen Scientific Instruments Division)]. Contractions were measured isometrically (Statham UC2, Janssen Scientific Instruments amplifier, Kipp BD-9 pen-recorder). During the stabilization period of 30 minutes, the strips were repeatedly stretched, in order to obtain a steady state tension of 1.5 g. Before starting the electrical stimulation, a cumulative concentration response curve of acetylcholine (3.10^−9, 10^−8, 3.10^−8 and 10^−7 M) was given. The bath fluid was replaced with fresh Krebs solution and the strips were allowed to stabilize for another 30 minutes. Subsequently, the strips were stimulated electrically (power stimulator) at a frequency of 0.1 Hz for 1 ms. […]

dogs = assay: Measurement of onset of liquid stool in dogs challenged with KleanPrep; assay type: in vivo, dog; conditions: for ED50: Canis lupus familiaris, read-out: ED50 for liquid stools within 6 hours after administration of KleanPrep
Procedure: Measurement of Onset of Liquid Stool
The dogs were orally or subcutaneously pretreated with test compounds or distilled water (0.5 ml/kg) and 1 hour later challenged by gavage with KleanPrep™ (standard volume: 2×200 ml at a 15 minutes interval). The time interval at which the first liquid stool occurred was noted (in minutes after the first administration of KleanPrep™) up to 6 hours after challenge.
The KleanPrep™ preparation consisted of polyethyleneglycol 3350 (59.000 g/l), sodium sulphate (5.685 g/l), sodium hydrogencarbonate (1.685 g/l), sodium chloride (1.465 g/l), potassium chloride (0.7425 g/l), aspartate (0.0494 g/l) and vanilla (0.3291 g/l).
In a pilot study on five dogs, large volumes of KleanPrep™ (1400, 1400, 1800, 2800, 2800 ml) and relatively long time intervals (95, 101, 124, 211 and 305 minutes after KleanPrep™) were required to obtain liquid stools within an observation period of 6 hours. In the present experiments, a standard volume of 400 ml KleanPrep™ solution (2×200 ml at a 15 minutes interval) was used. Under these conditions, liquid stools were not observed up to 6 hours after KleanPrep™, neither in 40 control dogs pretreated with a single dose of distilled water (0.5 ml/kg, p.o., −1 hour), nor in 35 control dogs pretreated with two doses of distilled water (0.5 ml/kg, p.o., −1 hour) immediately after each other, nor in 10 dogs pretreated with a dose of distilled water (0.5 ml/kg, p.o., −1 hour) and a dose of saline (0.5 ml/kg, s.c., −1 hour), nor in 5 dogs treated with two doses of distilled water (0.5 ml/kg, p.o., −1 hour) and a dose of saline (0.5 ml/kg, s.c., −1 hour).

[1] = dogs pretreated with Compound A 0.01 mg/kg, 5HT4 agonist co-administered, + KleanPrep
[2] = dogs pretreated with Compound A 0.01 mg/kg, 5HT4 agonist co-administered, + KleanPrep, shortest median reached (down to)
[3] = dogs, 5HT4 agonist alone 1 h before KleanPrep 2×200 ml
[4] = of 35 dogs, Compound A 0.01 mg/kg p.o. + distilled water, 1 h before KleanPrep

T1 sequence (O70528 whole entry): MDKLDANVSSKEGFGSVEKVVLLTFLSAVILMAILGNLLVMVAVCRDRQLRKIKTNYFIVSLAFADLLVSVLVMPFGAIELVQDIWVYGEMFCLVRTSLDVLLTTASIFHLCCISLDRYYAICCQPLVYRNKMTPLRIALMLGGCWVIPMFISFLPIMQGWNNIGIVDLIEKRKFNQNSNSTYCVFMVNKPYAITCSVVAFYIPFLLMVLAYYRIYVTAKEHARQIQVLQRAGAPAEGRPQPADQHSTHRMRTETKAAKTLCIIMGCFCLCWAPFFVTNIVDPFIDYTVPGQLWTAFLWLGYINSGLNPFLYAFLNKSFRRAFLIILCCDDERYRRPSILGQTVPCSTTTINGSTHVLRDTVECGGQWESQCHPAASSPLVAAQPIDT

Row | EC50 (5HT4 receptor) | Structure (SMILES) | ED50 for liquid stools within 1 hour (dogs; [1]) | median onset of the first liquid stool after administration of KleanPrep (dogs; [2]) | dose up to which liquid stools were not induced over the 6 hour observation period (dogs; [3]) | ED50 (dogs; [3]) | median onset of the first liquid stool after administration of KleanPrep (dogs; dogs, Compound A 0.01 mg/kg p.o. + KleanPrep, no 5HT4 agonist (control)) | number of dogs displaying liquid stools within 1 hour (dogs; [4]) | number of dogs displaying liquid stools within 6 hours (dogs; [4]) | dose up to which liquid stools within 1 hour were not obtained (dogs; [3])
1 | 1.6 nM | COCCCN1CC[C@@H](CNC(=O)c2cc(Cl)c(N)c3c2OC(C)(C)C3)[C@H](O)C1 [Compound B, (3S-trans)-4-amino-5-chloro-2,3-dihydro-N-[[3-hydroxy-1-(3-methoxypropyl)-4-piperidinyl]methyl]-2,2-dimethyl-7-benzofuran-carboxamide] | 0.0014 mg/kg | 29 min | > 2.5 mg/kg |  |  |  |  | 
2 |  | COc1cc(N)c(Cl)cc1C(=O)NC1CCN(CCCOc2ccc(F)cc2)CC1OC (centres unmarked) [cisapride] | 0.056 mg/kg | 24 min |  | 0.89 mg/kg |  |  |  | 
3 |  | CO[C@@H]1CN(CCCNc2nccc(=O)[nH]2)CC[C@@H]1NC(=O)c1cc(Cl)c(N)c2c1OC(C)(C)C2 (relative stereo) [Compound A, (−)-cis-4-amino-5-chloro-2,3-dihydro-N-[1-[3-[(3,4-dihydro-4-oxo-2-pyrimidinyl)-amino]propyl]-3-methoxy-4-piperidinyl]-2,2-dimethyl-7-benzofurancarboxamide] |  |  |  |  | 125 min | two | Thirty-three | 
4 |  | COCCCN1CCC(NC(=O)c2cc(Cl)c(N)c3c2OCC3)CC1 [prucalopride] | 0.22 mg/kg | 32 min |  | 2.3 mg/kg |  |  |  | > 5 mg/kg
